Measurements reported in PMC5218480 (PLoS ONE, 2017).

System: MV-4-11 cells
Assay: Gene expression microarray analysis (Affymetrix PrimeView) and GSEA
Format: cell-based, human
Design: RFU PODN (11730768_x_at) / Fold change /veh PODN (11730768_x_at) / RFU LINC00158 (11744669_a_at) / Fold change /veh LINC00158 (11744669_a_at) / RFU DUSP10 (11751237_a_at) / Fold change /veh DUSP10 (11751237_a_at) / RFU ID3 (11757404_x_at) / Fold change /veh ID3 (11757404_x_at) / RFU PLEKHG5 (11737974_s_at) / Fold change /veh PLEKHG5 (11737974_s_at) / RFU LRRC4B (11730491_at) / Fold change /veh LRRC4B (11730491_at) / RFU GIMAP4 (11747438_a_at) / Fold change /veh GIMAP4 (11747438_a_at) / RFU KRT8 (11758183_x_at) / Fold change /veh KRT8 (11758183_x_at) / RFU CNN1 (11734310_a_at) / Fold change /veh CNN1 (11734310_a_at) / RFU VPS37D (11726825_at) / Fold change /veh VPS37D (11726825_at) / RFU C10orf10 (11716522_x_at) / Fold change /veh C10orf10 (11716522_x_at) / RFU KIR2DL2 /// KIR2DL4 /// KIR2DL5A /// KIR2DL5B /// KIR2DS1 /// KIR2DS2 /// KIR2DS3 /// KIR2DS4 /// KIR3DL3 /// KIR3DL3 /// KIR3DS1 (11738374_at) / Fold change /veh KIR2DL2 /// KIR2DL4 /// KIR2DL5A /// KIR2DL5B /// KIR2DS1 /// KIR2DS2 /// KIR2DS3 /// KIR2DS4 /// KIR3DL3 /// KIR3DL3 /// KIR3DS1 (11738374_at) / RFU C1QL1 (11718748_at) / Fold change /veh C1QL1 (11718748_at) / RFU TMPRSS4 (11747572_a_at) / Fold change /veh TMPRSS4 (11747572_a_at) / RFU HAMP (11756126_x_at) / Fold change /veh HAMP (11756126_x_at) / RFU RNFT2 (11725882_a_at) / Fold change /veh RNFT2 (11725882_a_at) / RFU NR4A2 (11747474_a_at) / Fold change /veh NR4A2 (11747474_a_at) / RFU ABCC12 (11746883_a_at) / Fold change /veh ABCC12 (11746883_a_at) / RFU TMEM136 (11760407_x_at) / Fold change /veh TMEM136 (11760407_x_at) / RFU CLDN22 /// WWC2 (11732394_at) / Fold change /veh CLDN22 /// WWC2 (11732394_at) / RFU HLA-DPB1 (11760878_x_at) / Fold change /veh HLA-DPB1 (11760878_x_at) / RFU SPINT1 (11716480_a_at) / Fold change /veh SPINT1 (11716480_a_at) / RFU GAP43 (11754022_s_at) / Fold change /veh GAP43 (11754022_s_at) / RFU A4GNT (11735810_at) / Fold change /veh A4GNT (11735810_at) / RFU PRB3 (11715151_x_at) / Fold change /veh PRB3 (11715151_x_at) / RFU TUBB4B (11761932_at) / Fold change /veh TUBB4B (11761932_at) / RFU CAPN14 (11732068_a_at) / Fold change /veh CAPN14 (11732068_a_at) / RFU TMCC2 (11721928_a_at) / Fold change /veh TMCC2 (11721928_a_at) / RFU IRGQ (11745062_a_at) / Fold change /veh IRGQ (11745062_a_at) / RFU FAM174B (11720279_a_at) / Fold change /veh FAM174B (11720279_a_at) / RFU TMPRSS4 (11748680_a_at) / Fold change /veh TMPRSS4 (11748680_a_at) / RFU FAM212B (11763350_a_at) / Fold change /veh FAM212B (11763350_a_at) / RFU PLEKHG5 (11743358_a_at) / Fold change /veh PLEKHG5 (11743358_a_at) / RFU ZSCAN30 (11745921_a_at) / Fold change /veh ZSCAN30 (11745921_a_at) / RFU CMKLR1 (11741424_a_at) / Fold change /veh CMKLR1 (11741424_a_at) / RFU LOC101060620 /// MAPK8IP1 (11723275_at) / Fold change /veh LOC101060620 /// MAPK8IP1 (11723275_at) / RFU SPTSSB (11747773_x_at) / Fold change /veh SPTSSB (11747773_x_at) / RFU PRSS12 (11739890_at) / Fold change /veh PRSS12 (11739890_at) / RFU BIN1 (11741810_x_at) / Fold change /veh BIN1 (11741810_x_at) / RFU WNT11 (11732464_a_at) / Fold change /veh WNT11 (11732464_a_at) / RFU C10orf10 (11716521_a_at) / Fold change /veh C10orf10 (11716521_a_at) / RFU C5orf56 (11738089_at) / Fold change /veh C5orf56 (11738089_at) / RFU CYB561 (11721691_x_at) / Fold change /veh CYB561 (11721691_x_at) / RFU ANKRD19P (11752326_a_at) / Fold change /veh ANKRD19P (11752326_a_at) / RFU OR2T12 /// OR2T33 /// OR2T8 (11738714_s_at) / Fold change /veh OR2T12 /// OR2T33 /// OR2T8 (11738714_s_at) / RFU VCAN (11748164_a_at) / Fold change /veh VCAN (11748164_a_at) / RFU JSRP1 (11732532_at) / Fold change /veh JSRP1 (11732532_at) / RFU KRTAP10-11 (11738290_x_at) / Fold change /veh KRTAP10-11 (11738290_x_at) / RFU MYO3A (11730013_a_at) / Fold change /veh MYO3A (11730013_a_at) / RFU EBF3 (11725865_a_at) / Fold change /veh EBF3 (11725865_a_at) / RFU CAMK2N1 (11719241_x_at) / Fold change /veh CAMK2N1 (11719241_x_at) / RFU C5orf56 (11738088_a_at) / Fold change /veh C5orf56 (11738088_a_at) / RFU OLFML3 (11715873_a_at) / Fold change /veh OLFML3 (11715873_a_at) / RFU LOC100653217 /// NTM (11731650_a_at) / Fold change /veh LOC100653217 /// NTM (11731650_a_at) / RFU MAPK11 (11762145_a_at) / Fold change /veh MAPK11 (11762145_a_at) / RFU FIZ1 (11724087_x_at) / Fold change /veh FIZ1 (11724087_x_at) / RFU OASL (11726364_x_at) / Fold change /veh OASL (11726364_x_at) / RFU SOX15 (11748057_x_at) / Fold change /veh SOX15 (11748057_x_at) / RFU CD79A (11719716_a_at) / Fold change /veh CD79A (11719716_a_at) / RFU HIST1H1D (11736915_at) / Fold change /veh HIST1H1D (11736915_at) / RFU CASKIN2 (11723855_a_at) / Fold change /veh CASKIN2 (11723855_a_at) / RFU LOC730098 (11760151_x_at) / Fold change /veh LOC730098 (11760151_x_at) / RFU OR4N2 (11742367_at) / Fold change /veh OR4N2 (11742367_at) / RFU PRRT2 (11749266_a_at) / Fold change /veh PRRT2 (11749266_a_at) / RFU SNX32 (11753110_a_at) / Fold change /veh SNX32 (11753110_a_at) / RFU CDHR5 (11726645_a_at) / Fold change /veh CDHR5 (11726645_a_at) / RFU RCAN1 (11760418_a_at) / Fold change /veh RCAN1 (11760418_a_at) / RFU FAM167A (11723789_a_at) / Fold change /veh FAM167A (11723789_a_at) / RFU FAM26E (11764081_at) / Fold change /veh FAM26E (11764081_at) / RFU ISYNA1 (11749810_s_at) / Fold change /veh ISYNA1 (11749810_s_at) / RFU ACY1 (11761880_at) / Fold change /veh ACY1 (11761880_at) / RFU 11764098_at / Fold change /veh 11764098_at / RFU SAMD14 (11745864_x_at) / Fold change /veh SAMD14 (11745864_x_at) / RFU NPB (11741838_a_at) / Fold change /veh NPB (11741838_a_at) / RFU TMPRSS6 (11731388_a_at) / Fold change /veh TMPRSS6 (11731388_a_at) / RFU KRTAP10-2 (11738614_at) / Fold change /veh KRTAP10-2 (11738614_at) / RFU ARHGAP8 /// PRR5-ARHGAP8 (11727945_x_at) / Fold change /veh ARHGAP8 /// PRR5-ARHGAP8 (11727945_x_at) / RFU KRTAP5-7 /// NADSYN1 (11734609_at) / Fold change /veh KRTAP5-7 /// NADSYN1 (11734609_at) / RFU RASL12 (11751679_a_at) / Fold change /veh RASL12 (11751679_a_at) / RFU CDKN2B (11736163_a_at) / Fold change /veh CDKN2B (11736163_a_at) / RFU PRF1 (11729649_at) / Fold change /veh PRF1 (11729649_at) / RFU, ZNF638 /// ZNF638-IT1 / Fold change vs veh, ZNF638 /// ZNF638-IT1 / RFU, PANK3 / Fold change vs veh, PANK3 / RFU, SH3YL1 / Fold change vs veh, SH3YL1 / RFU, ZEB2 / Fold change vs veh, ZEB2 / RFU, NRIP1 / Fold change vs veh, NRIP1 / RFU, PTTG1IP / Fold change vs veh, PTTG1IP / RFU, CAPN2 / Fold change vs veh, CAPN2 / RFU, MED14 / Fold change vs veh, MED14 / RFU, SNORA58 / Fold change vs veh, SNORA58 / RFU, C1orf63 / Fold change vs veh, C1orf63 / RFU, LRRFIP1 / Fold change vs veh, LRRFIP1 / RFU, NDUFAF7 / Fold change vs veh, NDUFAF7 / RFU, SLC12A2 / Fold change vs veh, SLC12A2 / RFU, IBTK / Fold change vs veh, IBTK / RFU, ESF1 / Fold change vs veh, ESF1 / Fold change vs veh, TMEM50B / RFU, TAOK1 / Fold change vs veh, TAOK1 / RFU, ACBD3 / Fold change vs veh, ACBD3 / RFU, TMA16 / Fold change vs veh, TMA16 / RFU, RWDD3 / Fold change vs veh, RWDD3 / RFU, BCAT1 / Fold change vs veh, BCAT1 / RFU, EDEM3 / Fold change vs veh, EDEM3 / RFU, TMEM33 / Fold change vs veh, TMEM33 / RFU, WDR75 / Fold change vs veh, WDR75 / RFU, AHCTF1 / Fold change vs veh, AHCTF1 / RFU, TFRC / Fold change vs veh, TFRC / RFU, ZDHHC17 / Fold change vs veh, ZDHHC17 / RFU, NOM1 / Fold change vs veh, NOM1 / RFU, ARL8B / Fold change vs veh, ARL8B / RFU, ZBTB11 / Fold change vs veh, ZBTB11 / RFU, TAMM41 / Fold change vs veh, TAMM41 / RFU, KIAA1704 /// LOC100996395 / Fold change vs veh, KIAA1704 /// LOC100996395 / RFU, ING1 / Fold change vs veh, ING1 / RFU, TRMT61B / Fold change vs veh, TRMT61B / RFU, FUBP3 / Fold change vs veh, FUBP3 / RFU, TP53 / Fold change vs veh, TP53 / RFU, TNKS2 / Fold change vs veh, TNKS2 / RFU, ZFP14 / Fold change vs veh, ZFP14 / RFU, ACTR2 / Fold change vs veh, ACTR2 / RFU, PPP3R1 / Fold change vs veh, PPP3R1 / RFU, PIK3R1 / Fold change vs veh, PIK3R1 / RFU, HNRNPA1 / Fold change vs veh, HNRNPA1 / RFU, RNF170 / Fold change vs veh, RNF170 / RFU, ZNF28 / Fold change vs veh, ZNF28 / RFU, RNGTT / Fold change vs veh, RNGTT / RFU, OGT / Fold change vs veh, OGT / RFU, BRD1 / Fold change vs veh, BRD1 / RFU, MARS / Fold change vs veh, MARS / RFU, ZNF655 / Fold change vs veh, ZNF655 / RFU, FAHD1 / Fold change vs veh, FAHD1 / RFU, BDP1 / Fold change vs veh, BDP1 / RFU, LRRCC1 / Fold change vs veh, LRRCC1 / RFU, ARID1A / Fold change vs veh, ARID1A / RFU, ZNF146 / Fold change vs veh, ZNF146 / RFU, ZNF330 / Fold change vs veh, ZNF330 / RFU, GPN3 / Fold change vs veh, GPN3 / RFU, C9orf123 / Fold change vs veh, C9orf123 / RFU, N4BP2L2 / Fold change vs veh, N4BP2L2 / RFU, ARFIP1 / Fold change vs veh, ARFIP1 / RFU, FAM179B / Fold change vs veh, FAM179B / RFU, BCL10 / Fold change vs veh, BCL10 / RFU, UHRF1BP1L / Fold change vs veh, UHRF1BP1L / RFU, BET1 / Fold change vs veh, BET1 / RFU, CNOT2 / Fold change vs veh, CNOT2 / RFU, ZNF268 / Fold change vs veh, ZNF268 / Fold change vs veh, ZNF507 / RFU, DGCR2 / Fold change vs veh, DGCR2 / RFU, WDSUB1 / Fold change vs veh, WDSUB1 / Fold change vs veh, HSP90B1 /// MIR3652 / RFU, ADSS / Fold change vs veh, ADSS / RFU, GK / Fold change vs veh, GK / RFU, ZNF148 / Fold change vs veh, ZNF148 / RFU, TAF9 / Fold change vs veh, TAF9 / RFU, SLC1A5 / Fold change vs veh, SLC1A5 / RFU, SLMO2 / Fold change vs veh, SLMO2 / RFU, ABCC4 / Fold change vs veh, ABCC4 / RFU, LOC101060439 /// RAP1B / Fold change vs veh, LOC101060439 /// RAP1B / RFU, RFX7 / Fold change vs veh, RFX7 / RFU, GTPBP10 / Fold change vs veh, GTPBP10 / RFU, CNEP1R1 / Fold change vs veh, CNEP1R1 / RFU, BIVM-ERCC5 /// ERCC5 / Fold change vs veh, BIVM-ERCC5 /// ERCC5 / RFU, ILF3 / Fold change vs veh, ILF3 / RFU 11762660_at / Fold change /veh 11762660_at / RFU VCAN (11757783_s_at) / Fold change /veh VCAN (11757783_s_at) / RFU DDX43 (11728927_at) / Fold change /veh DDX43 (11728927_at) / RFU KRT8 (11758188_x_at) / Fold change /veh KRT8 (11758188_x_at) / RFU NKD1 (11759106_at) / Fold change /veh NKD1 (11759106_at) / RFU SRD5A1 (11742802_a_at) / Fold change /veh SRD5A1 (11742802_a_at) / RFU TPSAB1 /// TPSB2 (11721975_s_at) / Fold change /veh TPSAB1 /// TPSB2 (11721975_s_at) / RFU GSTM3 (11746129_a_at) / Fold change /veh GSTM3 (11746129_a_at) / RFU IL23R (11737362_x_at) / Fold change /veh IL23R (11737362_x_at) / RFU TMEM51 (11727254_a_at) / Fold change /veh TMEM51 (11727254_a_at) / RFU PIWIL2 (11732686_x_at) / Fold change /veh PIWIL2 (11732686_x_at) / RFU ORM1 (11744905_x_at) / Fold change /veh ORM1 (11744905_x_at) / RFU CCDC152 (11743942_at) / Fold change /veh CCDC152 (11743942_at) / RFU ECM1 (11717891_a_at) / Fold change /veh ECM1 (11717891_a_at) / RFU IL23R (11748794_a_at) / Fold change /veh IL23R (11748794_a_at) / RFU TNFAIP8L3 (11732012_x_at) / Fold change /veh TNFAIP8L3 (11732012_x_at) / RFU MBOAT4 (11741988_at) / Fold change /veh MBOAT4 (11741988_at) / RFU 11764193_at / Fold change /veh 11764193_at / RFU TMEM53 (11763286_at) / Fold change /veh TMEM53 (11763286_at) / RFU MAGEB2 (11727129_at) / Fold change /veh MAGEB2 (11727129_at) / RFU TMEM200A (11744735_a_at) / Fold change /veh TMEM200A (11744735_a_at) / RFU CCDC152 (11751479_a_at) / Fold change /veh CCDC152 (11751479_a_at) / RFU FAM211A (11726209_a_at) / Fold change /veh FAM211A (11726209_a_at) / RFU RGS16 (11746705_a_at) / Fold change /veh RGS16 (11746705_a_at) / RFU VCAN (11755009_s_at) / Fold change /veh VCAN (11755009_s_at) / RFU RHOB (11743442_s_at) / Fold change /veh RHOB (11743442_s_at) / RFU RGS16 (11720943_a_at) / Fold change /veh RGS16 (11720943_a_at) / RFU RGS16 (11720944_at) / Fold change /veh RGS16 (11720944_at) / RFU, VPS4B / Fold change vs veh, VPS4B / RFU, CREB1 / Fold change vs veh, CREB1 / RFU, DNAJC13 / Fold change vs veh, DNAJC13 / RFU, GNAQ / Fold change vs veh, GNAQ / RFU, CDK5R1 / Fold change vs veh, CDK5R1 / RFU, ZRANB3 / Fold change vs veh, ZRANB3 / RFU, CUL4A / Fold change vs veh, CUL4A / RFU, CCNY / Fold change vs veh, CCNY / RFU, UFL1 / Fold change vs veh, UFL1 / RFU, COG3 / Fold change vs veh, COG3 / RFU, DIAPH2 / Fold change vs veh, DIAPH2 / RFU, SKA2 / Fold change vs veh, SKA2 / RFU, AFF3 / Fold change vs veh, AFF3 / RFU, LMF1 / Fold change vs veh, LMF1 / RFU, IPO11 / Fold change vs veh, IPO11 / RFU, DFFB / Fold change vs veh, DFFB / RFU, FOXP1 / Fold change vs veh, FOXP1 / RFU, CARD8 / Fold change vs veh, CARD8 / RFU, STRN3 / Fold change vs veh, STRN3 / RFU, ADK / Fold change vs veh, ADK / RFU, RASSF2 / Fold change vs veh, RASSF2 / RFU, WIPF1 / Fold change vs veh, WIPF1 / RFU, LARP1B / Fold change vs veh, LARP1B / RFU, RASA1 / Fold change vs veh, RASA1 / RFU, RB1 / Fold change vs veh, RB1 / RFU, PPFIA1 / Fold change vs veh, PPFIA1 / RFU, MAT2A / Fold change vs veh, MAT2A / RFU, CCT5 / Fold change vs veh, CCT5 / RFU, WDR92 / Fold change vs veh, WDR92 / RFU, CUX1 / Fold change vs veh, CUX1 / RFU, TTC7A / Fold change vs veh, TTC7A / RFU, TMEM135 / Fold change vs veh, TMEM135 / RFU, DEPTOR / Fold change vs veh, DEPTOR / RFU, CPM / Fold change vs veh, CPM / RFU, DNAJB6 / Fold change vs veh, DNAJB6 / RFU, CACNA2D3 / Fold change vs veh, CACNA2D3 / RFU, DTX4 / Fold change vs veh, DTX4 / RFU, TFCP2 / Fold change vs veh, TFCP2 / RFU, GMCL1 /// GMCL1P1 / Fold change vs veh, GMCL1 /// GMCL1P1 / RFU, AEBP2 / Fold change vs veh, AEBP2 / RFU, SNHG1 /// SNORD22 /// SNORD25 /// SNORD26 /// SNORD27 /// SNORD28 /// SNORD29 /// SNORD31 / Fold change vs veh, SNHG1 /// SNORD22 /// SNORD25 /// SNORD26 /// SNORD27 /// SNORD28 /// SNORD29 /// SNORD31 / Fold change (Aza/veh), C12orf56 (ProbeSet 11735607_a_at) / Fold change (ACY-1035/veh), C12orf56 (ProbeSet 11735607_a_at) / Fold change (Aza/veh), FGFR1OP (ProbeSet 11751329_s_at) / Fold change (ACY-1035/veh), FGFR1OP (ProbeSet 11751329_s_at) / Fold change (Aza/veh), VPS36 (ProbeSet 11739960_a_at) / Fold change (ACY-1035/veh), VPS36 (ProbeSet 11739960_a_at) / RFU SYPL1 (11715823_x_at) / Fold change /veh SYPL1 (11715823_x_at) / RFU IGFBP7 (11715501_s_at) / Fold change /veh IGFBP7 (11715501_s_at) / RFU REEP3 (11722064_at) / Fold change /veh REEP3 (11722064_at) / RFU IGLL1 (11728026_x_at) / Fold change /veh IGLL1 (11728026_x_at): dose or concentration left out as unconfirmed
Conditions: ProbeSet 11732306_x_at; LIST D

SMILES: Nc1ccc(-c2cccs2)cc1NC(=O)c1ccc2c(c1)cc(C1CC1)n2CCN1CCOCC1 [ACY-1035]
- RFU, CREB1: 287.35 RFU
